The record followed here is patent publication US20140315857A1, “N- (4 -QUINOLINYLMETHYL) SULFONAMIDE DERIVATIVES AND THEIR USE AS ANTHELMINTICS” (E I DU PONT DE NEMOURS AND COMPANY, priority 2011, published 2014).

In data set [1] the test system is Haemonchus contortus. Description: Test A: control of barber pole worm, eggs in culture media, mortality at L3 stage. The format is cell-based. The following applies: 120 h. Here is the method:
For evaluating control of the barber pole worm (Haemonchus contortus), a test compound was solubilized in culture media (Earle's Balanced Salt Solution) containing Haemonchus contortus eggs to obtain a final test compound concentration of 2.0 ppm. The test unit was evaluated for mortality 120 hours later after which the eggs had hatched and had advanced to the L3 stage.

For data set [2], the system named is Haemonchus contortus. Briefly: Test B: Haemonchus contortus burdens in infected mice after oral gavage. The data set is classed as in vivo. The following applies: oral gavage 10.0 mg/kg body weight on day 0, Haemonchus contortus burdens on day 5 relative to vehicle-dosed controls. Here is the method: For evaluating control of the barber pole worm (Haemonchus contortus), mice were each infected orally with 600 L3 Haemonchus contortus larvae on Day −3. On day 0, the infected mice were gavaged with a test compound (n=1) in a propylene glycol/glycerol formal solution at the rate of 10.0 mg/kg body weight. On day 5, the mice were euthanized and evaluated for Haemonchus contortus burdens relative to the vehicle-dosed controls. The range of means for the number of Haemonchus contortus in the various tests in which these compounds were studied was 92-184.

A word on the mortality: it is the share of the test organisms that died. Higher therefore signals a strong lethal effect. `O=S(=O)(NCc1ccnc2ccccc12)c1ccc(C#CC2CC2)cc1` [Compound 2, 4-(2-cyclopropylethynyl)-N-(4-quinolinylmethyl)benzenesulfonamide] yielded a mortality at 2 ppm in data set [1] of 100%. Also, the “% Efficacy” value in data set [2] is listed as 60%. `O=S(=O)(NCc1ccnc2ccccc12)c1ccc(C#Cc2ccccn2)cc1` [Compound 4, 4-[2-(2-pyridinyl)ethynyl]-N-(4-quinolinylmethyl)benzenesulfonamide] gave a mortality at 2 ppm in data set [1] of 100%. The “% Efficacy” value in data set [2] is on record as 89%. In the same order, the values of `O=S(=O)(NCc1ccnc2ccccc12)c1ccc(C#CC2CC2)s1` [Compound 15, 5-(2-cyclopropylethynyl)-N-(4-quinolinylmethyl)-2-thiophenesulfonamide] are 100% and 93%. Usually melting point stands for the temperature, or range, at which the solid turns liquid. In the case of `O=S(=O)(NCc1ccnc2ncccc12)c1ccc(C#CC2CC2)cc1` [Compound 48, 4-(2-cyclopropylethynyl)-N-(1,8-naphthyridin-4-ylmethyl)-benzenesulfonamide], the melting point was 193 to 195 °C.
